{"source": "patent US10441628B2", "about": "“High activity tumour inhibitor and preparation method and use thereof” (BAO KANG BIOMEDICAL HEALTHCARE INC, priority 2014, dated 2019)", "key": {"[1]": {"assay": "Cell penetration or infiltration of polypeptides", "type": "cell-based", "settings": "penetration of the peptide with RRMKWKK taken as 100%", "description": "In this example, the sequence was modified based on SEQ ID NO.: 1. Some preferred modification based on the tested results included: adding a disulfide linkage within the peptide, or adding a cell-penetrating element."}, "[2]": {"settings": "plasma", "protocol": "(§4) For the YAP inhibitory polypeptides modified in above (a) and (b), the IC50 values for TEAD binding and the stability in plasma were measured."}, "[3]": {"tested_on": "BEL7404", "type": "cell-based", "description": "(§1) The hepatoma cell line BEL7404 (purchased from The Chinese Academy of Sciences cell bank) was a cell line with high expression of YAP protein; HCCLM3 (purchased from The Chinese Academy of Sciences cell bank) was a cell line with low expression of YAP protein. The hepatoma cell lines (BEL7404 or HCCLM3) were inoculated into a 96-well plate at the concentration of 2000 cells/well, and incubated overnight in RPMI1640 containing 1% bovine serum at 37° C. The hepatoma cell lines were treated with polypeptides having different concentrations at 37° C. for 72 h.\n(§2) Moreover, IC50 values of the cells in 1.1 were determined using CCK-8 kit.\n(§3) The polypeptide represented by SEQ ID NO.:1 was further modified. The IC50 values of the polypeptides at a concentration of 1% in cell cultivating for 72 h were measured."}, "[4]": {"tested_on": "HCCLM3", "type": "cell-based", "description": "as §1, §2, §3"}, "[5]": {"tested_on": "MHCC97L", "assay": "Cell proliferation inhibition of MHCC97L by liposome formulations / acylated polypeptides, CCK-8", "type": "cell-based", "description": "MHCC97L (ATCC) cells were seeded in 96-well plates with 10% FBS DMEM medium at a density of 4000 cells/well and incubated overnight at 37° C. […] The cell viability was determined by CCK-8 kit."}, "[6]": {"tested_on": "BEL7404", "assay": "Cell proliferation inhibition of BEL7404 by liposome formulations / acylated polypeptides, CCK-8", "type": "cell-based"}, "[7]": {"assay": "Stability in plasma (residual peptide)", "protocol": "as §4"}, "[8]": {"target": "TEAD (UniProt P28347)", "sequence (P28347 whole entry)": "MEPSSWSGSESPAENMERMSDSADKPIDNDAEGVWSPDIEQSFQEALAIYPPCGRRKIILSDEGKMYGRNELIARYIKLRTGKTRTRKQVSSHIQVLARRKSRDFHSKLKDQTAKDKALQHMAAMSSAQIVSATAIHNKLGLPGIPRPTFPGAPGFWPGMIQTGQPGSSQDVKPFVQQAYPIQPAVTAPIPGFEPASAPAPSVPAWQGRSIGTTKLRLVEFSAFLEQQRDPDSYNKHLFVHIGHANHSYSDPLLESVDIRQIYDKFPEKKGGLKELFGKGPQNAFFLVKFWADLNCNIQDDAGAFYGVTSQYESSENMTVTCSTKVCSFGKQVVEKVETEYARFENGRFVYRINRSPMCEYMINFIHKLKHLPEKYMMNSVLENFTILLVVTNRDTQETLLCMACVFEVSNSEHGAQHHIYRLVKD", "assay": "TEAD binding (TR-FRET test)", "description": "The interaction of the two molecules makes the two fluorophores close to each other and generate energy transfer, and then fluoresce at specific wavelength is transmitted.\nThe sequences of the modified peptides were represented by SEQ ID NOs.: 8 and 9. The IC50 values for TEAD binding and stability in plasma were measured.\nThe modified polypeptides were tested to measure IC50 values for TEAD binding and stability in plasma."}, "[9]": {"assay": "in vitro", "settings": "plasma", "protocol": "as §4"}}, "note": "Like-named read-outs stand apart in the source and are kept apart here. Positions of bridges follow the written chain, without caps; N, C: chain ends. Non-standard residues stand in square brackets, D forms with d. Residues, ends and D or L forms follow the SMILES beside them. No end group written: not given here. *: point of attachment. Phe(3-Cl) = N[C@@H](Cc1cccc(Cl)c1)C(=O)O; Stearoyl = CCCCCCCCCCCCCCCCCC(=O)*; hCys = N[C@@H](CCS)C(=O)O; Nle = CCCC[C@H](N)C(=O)O; Orn = NCCC[C@H](N)C(=O)O; Dab = NCC[C@H](N)C(=O)O"}
{"molecule": "3: Peptide (SEQ ID NO.: 1) + Cell-penetrating element 1 (RRMKWKK, SEQ ID NO.: 13) (VPMRLRKLPDSFFKPPERRMKWKK; cell penetrating element; listed as Homo sapiens) [Peptide 3]", "values": [{"measurement": "Percentage of Cell penetration or infiltration", "setting": "[1]", "value": 100, "unit": "%"}, {"measurement": "Stability (4 h)", "setting": "[2]", "value": 49, "unit": "%"}]}
{"molecule": "4: Peptide (SEQ ID NO.: 1) + Cell-penetrating element 2 (RGRKKRRQRRR, SEQ ID NO.: 14) (VPMRLRKLPDSFFKPPERGRKKRRQRRR; cell penetrating element; listed as Homo sapiens) [Peptide 4]", "values": [{"measurement": "Percentage of Cell penetration or infiltration", "setting": "[1]", "value": 135, "unit": "%"}]}
{"molecule": "32 (VPXLXKKXPASFKCPPRRMKWKK; (3)..(3) Xaa=(3Cl-)F; (5)..(5) Xaa=Hcy; (8)..(8) Xaa=Nle) [compound 32]", "values": [{"measurement": "IC50", "setting": "[3]; concentration of 1% in cell cultivating for 72 h, read-out: IC50 BEL7404", "value": "38.4 ± 3.8", "unit": "µM"}, {"measurement": "IC50", "setting": "[4]; concentration of 1% in cell cultivating for 72 h, read-out: IC50 HCCLM3", "value": "319 ± 17.5", "unit": "µM"}]}
{"molecule": "CCCCCCCCCCCCCCCCCC(=O)NCCCC[C@H](NC(=O)[C@@H]1CSSCC[C@H](NC(=O)[C@H](CCCCN)NC(=O)[C@H](CCCCN)NC(=O)[C@H](CC(C)C)NC(=O)[C@H](Cc2cccc(Cl)c2)NC(=O)[C@@H]2CCCN2C(=O)[C@@H](NC(C)=O)C(C)C)C(=O)N[C@@H](CCCC)C(=O)N2CCC[C@H]2C(=O)N[C@@H](C)C(=O)N[C@@H](CO)C(=O)N[C@@H](Cc2ccccc2)C(=O)N[C@@H](CCCCN)C(=O)N2CCC[C@H]2C(=O)N2CCC[C@H]2C(=O)N1)C(N)=O", "note": "[P49 polypeptide] (Ac-VP[Phe(3-Cl)]LKK[hCys][Nle]PASFKPPCK(Stearoyl)-NH2; disulfide 7-16)", "values": [{"measurement": "IC50", "setting": "[5]", "value": "7.83 ± 2.69", "unit": "µM"}, {"measurement": "IC50", "setting": "[6]", "value": "2.02 ± 0.39", "unit": "µM"}]}
{"molecule": "CSCC[C@H](NC(=O)[C@@H]1CCCN1C(=O)[C@@H](N)C(C)C)C(=O)N[C@H]1CCSSC[C@@H](C(=O)N[C@@H](CCCCN)C(=O)N2CCC[C@H]2C(=O)N2CCC[C@H]2C(=O)N[C@@H](CCC(=O)O)C(=O)O)NC(=O)[C@H](Cc2ccccc2)NC(=O)[C@H](CO)NC(=O)[C@H](CC(=O)O)NC(=O)[C@@H]2CCCN2C(=O)[C@H](CC(C)C)NC(=O)[C@H](CCCCN)NC(=O)[C@H](CCCNC(=N)N)NC(=O)[C@H](CC(C)C)NC1=O", "note": "[Peptide 2]", "values": [{"measurement": "Percentage of Cell penetration or infiltration", "setting": "[1]", "value": 8, "unit": "%"}, {"measurement": "remaining at 4 h", "setting": "[7]; plasma, Stability (4 h), plasma, percentage of residual peptides after 4 h", "value": 93, "unit": "%"}]}
{"molecule": "CSCC[C@H](NC(=O)[C@@H]1CCCN1C(=O)[C@@H](N)C(C)C)C(=O)N[C@@H](CCCNC(=N)N)C(=O)N[C@@H](CC(C)C)C(=O)N[C@@H](CCCNC(=N)N)C(=O)N[C@@H](CCCCN)C(=O)N[C@@H](CC(C)C)C(=O)N1CCC[C@H]1C(=O)N[C@@H](CC(=O)O)C(=O)N[C@@H](CO)C(=O)N[C@@H](Cc1ccccc1)C(=O)N[C@@H](Cc1ccccc1)C(=O)N[C@@H](CCCCN)C(=O)N1CCC[C@H]1C(=O)N1CCC[C@H]1C(=O)N[C@@H](CCC(=O)O)C(=O)O", "note": "[SEQ ID NO.: 1]", "values": [{"measurement": "IC50", "setting": "[3]; 72 h", "value": "388 ± 43.6", "unit": "µM"}, {"measurement": "IC50", "setting": "[4]; 72 h", "value": "809 ± 27.4", "unit": "µM"}, {"measurement": "stability (in words)", "setting": "[7]", "value": "low stability"}, {"measurement": "remaining at 4 h", "setting": "[7]; plasma", "value": 0, "unit": "%"}, {"measurement": "Stability (>24 h)", "setting": "[7]; plasma, percentage of residual peptides after >24 h", "value": 0, "unit": "%"}]}
{"molecule": "CC(C)C[C@@H]1NC(=O)[C@@H](NC(=O)[C@H](Cc2ccccc2)NC(=O)[C@@H]2CCCN2C(=O)[C@@H](N)C(C)C)CCSSC[C@@H](C(=O)N[C@@H](CCCCN)C(=O)N2CCC[C@H]2C(=O)N2CCC[C@H]2C(=O)N[C@@H](CCC(=O)O)C(=O)O)NC(=O)[C@H](Cc2ccccc2)NC(=O)[C@H](CO)NC(=O)[C@H](CC(=O)O)NC(=O)[C@@H]2CCCN2C(=O)[C@H](CC(C)C)NC(=O)[C@H](CCCN)NC(=O)[C@H](CCCNC(=N)N)NC1=O", "note": "[compound 5] (H-VPF[hCys]LR[Orn]LPDSFCKPPE-OH; disulfide 4-13 (inferred); N-terminus and C-terminus assumed)", "values": [{"measurement": "IC50", "setting": "[8]", "value": 0.043, "unit": "µM"}, {"measurement": "remaining at 4 h", "setting": "[9]", "value": 99, "unit": "%"}]}
{"molecule": "CC(C)C[C@@H]1NC(=O)[C@@H](NC(=O)[C@H](Cc2ccccc2)NC(=O)[C@@H]2CCCN2C(=O)[C@@H](N)C(C)C)CCSSC[C@@H](C(=O)N[C@@H](CCCCN)C(=O)N2CCC[C@H]2C(=O)N2CCC[C@H]2C(=O)N[C@@H](CCC(=O)O)C(=O)O)NC(=O)[C@H](Cc2ccccc2)NC(=O)[C@H](CO)NC(=O)[C@H](CC(=O)O)NC(=O)[C@@H]2CCCN2C(=O)[C@H](CC(C)C)NC(=O)[C@H](CCN)NC(=O)[C@H](CCCNC(=N)N)NC1=O", "note": "[compound 6] (H-VPF[hCys]LR[Dab]LPDSFCKPPE-OH; disulfide 4-13 (inferred); N-terminus and C-terminus assumed)", "values": [{"measurement": "IC50", "setting": "[8]", "value": 0.028, "unit": "µM"}, {"measurement": "remaining at 4 h", "setting": "[9]", "value": 98, "unit": "%"}]}
{"molecule": "CSCC[C@H](NC(=O)[C@@H]1CCCN1C(=O)[C@@H](N)C(C)C)C(=O)N[C@H]1CSSC[C@@H](C(=O)N[C@@H](Cc2c[nH]cn2)C(=O)N2CCC[C@H]2C(=O)N2CCC[C@H]2C(=O)N[C@@H](CCC(=O)O)C(=O)O)NC(=O)[C@H](Cc2ccccc2)NC(=O)[C@H](CO)NC(=O)[C@H](CCC(=O)O)NC(=O)[C@@H]2CCCN2C(=O)[C@H](CC(C)C)NC(=O)[C@H](CCCCN)NC(=O)[C@H](CCCNC(=N)N)NC(=O)[C@H](CC(C)C)NC1=O", "note": "[compound 8] (H-VPMCLRKLPESFCHPPE-OH; disulfide 4-13; N-terminus and C-terminus assumed)", "values": [{"measurement": "IC50", "setting": "[8]", "value": 0.028, "unit": "µM"}, {"measurement": "remaining at 4 h", "setting": "[9]", "value": 105, "unit": "%"}]}
{"molecule": "CSCC[C@H](NC(=O)[C@@H]1CCCN1C(=O)[C@@H](N)C(C)C)C(=O)N[C@H]1CCSSC[C@@H](C(=O)N[C@@H](CC(=O)O)C(=O)N2CCC[C@H]2C(=O)N2CCC[C@H]2C(=O)N[C@@H](CCC(=O)O)C(=O)O)NC(=O)[C@H](Cc2ccccc2)NC(=O)[C@H](CO)NC(=O)[C@H](CS)NC(=O)[C@@H]2CCCN2C(=O)[C@H](CC(C)C)NC(=O)[C@H](CCCCN)NC(=O)[C@H](CCCNC(=N)N)NC(=O)[C@H](CC(C)C)NC1=O", "note": "[compound 9] (H-VPM[hCys]LRKLPCSFCDPPE-OH; disulfide 4-13)", "values": [{"measurement": "IC50", "setting": "[8]", "value": 0.025, "unit": "µM"}, {"measurement": "remaining at 4 h", "setting": "[9]", "value": 100, "unit": "%"}]}
{"molecule": "PAGWEMAKTSSGQRYF [compound 20]", "values": [{"measurement": "IC50", "setting": "[3]; 72 h", "value": "444 ± 46.5", "unit": "µM"}, {"measurement": "IC50", "setting": "[4]; 72 h", "value": "> 1000", "unit": "µM"}]}
{"molecule": "PQGQGPPSGPGQPAPA [compound 16]", "values": [{"measurement": "IC50", "setting": "[3]; 72 h", "value": "242 ± 27.2", "unit": "µM"}, {"measurement": "IC50", "setting": "[4]; 72 h", "value": "> 1000", "unit": "µM"}]}
